# Test results reported in ChEMBL document CHEMBL1201862, “PubChem BioAssay data set” (2004).
#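 Method: 48-hour compound exposure of cells in 96-well plates, five concentrations, linear interpolation of endpoints. GI50 marks 50% less growth.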 The source made the active and inactive calls. Cut-off read from the data, not from the text of the source: active = GI50 up to about 1.1 µM and inactive = higher.
# How the values were obtained:
# Assay in all cases: inhibition of tumour cell growth, NCI panel, 48 h
# HT-29 = tested on: HT-29
# CAKI-1 = tested on: CAKI-1
# MOLT-4 = tested on: MOLT-4
# SK-MEL-28 = tested on: SK-MEL-28
# NCI-H460 = tested on: NCI-H460
# HOP-62 = tested on: HOP-62
# 786-0 = tested on: 786-0
# MDA-MB-231 = tested on: MDA-MB-231
# IGROV-1 = tested on: IGROV-1
# LOX IMVI = tested on: LOX IMVI
# SNB-19 = tested on: SNB-19
# BT-549 = tested on: BT-549
# SK-MEL-2 = tested on: SK-MEL-2
# MDA-MB-435 = tested on: MDA-MB-435
# NCI-H226 = tested on: NCI-H226
# HCT-15 = tested on: HCT-15
# OVCAR-8 = tested on: OVCAR-8
# A549 = tested on: A549
# ACHN = tested on: ACHN
# PC-3 = tested on: PC-3
# RPMI-8226 = tested on: RPMI-8226
# HOP-92 = tested on: HOP-92
# RXF 393 = tested on: RXF 393
# SF-539 = tested on: SF-539
# SF-268 = tested on: SF-268
# HCT-116 = tested on: HCT-116
# MDA-N = tested on: MDA-N
# A498 = tested on: A498
# EKVX = tested on: EKVX
# SK-OV-3 = tested on: SK-OV-3
# T47D = tested on: T47D
# MCF7 = tested on: MCF7
# Hs-578T = tested on: Hs-578T
# NCI-H522 = tested on: NCI-H522
# CCRF-CEM = tested on: CCRF-CEM
# NCI-H23 = tested on: NCI-H23
# K562 = tested on: K562
# SF-295 = tested on: SF-295
# SNB-75 = tested on: SNB-75
# SK-MEL-5 = tested on: SK-MEL-5
# UACC-257 = tested on: UACC-257
# OVCAR-3 = tested on: OVCAR-3
# KM12 = tested on: KM12
# SR = tested on: SR
# NCI/ADR-RES = tested on: NCI/ADR-RES
# HL-60 = tested on: HL-60
# SN12C = tested on: SN12C
# OVCAR-4 = tested on: OVCAR-4
# TK-10 = tested on: TK-10
# COLO 205 = tested on: COLO 205
# UO-31 = tested on: UO-31
# SW-620 = tested on: SW-620
# U-251 = tested on: U-251
# Malme-3M = tested on: Malme-3M
# DU-145 = tested on: DU-145
# OVCAR-5 = tested on: OVCAR-5
# HCC 2998 = tested on: HCC 2998
# UACC-62 = tested on: UACC-62
# M14 = tested on: M14
# LXFL 529 = tested on: LXFL 529
# SNB-78 = tested on: SNB-78
# DLD-1 = tested on: DLD-1
# M19-MEL = tested on: M19-MEL
structure (smiles),measurement,setting,value
CCCCCCCCCCCC(=O)N(CCCCCCCCCCC(=O)O)CC(O)C(O)C(OC1OC(CO)C(O)C(O)C1O)C(O)CO (stereo not drawn),GI50,HT-29,> 100 µM (inactive)
same,GI50,CAKI-1,> 100 µM (inactive)
same,GI50,MOLT-4,> 100 µM (inactive)
same,GI50,SK-MEL-28,> 100 µM (inactive)
same,GI50,NCI-H460,> 100 µM (inactive)
same,GI50,HOP-62,> 100 µM (inactive)
same,GI50,786-0,> 100 µM (inactive)
same,GI50,MDA-MB-231,> 100 µM (inactive)
same,GI50,IGROV-1,> 100 µM (inactive)
same,GI50,LOX IMVI,> 100 µM (inactive)
same,GI50,SNB-19,> 100 µM (inactive)
same,GI50,BT-549,> 100 µM (inactive)
same,GI50,SK-MEL-2,> 100 µM (inactive)
same,GI50,MDA-MB-435,> 100 µM (inactive)
same,GI50,NCI-H226,> 100 µM (inactive)
same,GI50,HCT-15,> 100 µM
same,GI50,OVCAR-8,> 100 µM (inactive)
same,GI50,A549,> 100 µM (inactive)
same,GI50,ACHN,> 100 µM (inactive)
same,GI50,PC-3,> 100 µM (inactive)
same,GI50,RPMI-8226,50.7 µM (inactive)
same,GI50,HOP-92,> 100 µM (inactive)
same,GI50,RXF 393,> 100 µM (inactive)
same,GI50,SF-539,> 100 µM (inactive)
same,GI50,SF-268,> 100 µM (inactive)
same,GI50,HCT-116,> 100 µM (inactive)
same,GI50,MDA-N,> 100 µM (inactive)
same,GI50,A498,> 100 µM (inactive)
same,GI50,EKVX,> 100 µM (inactive)
same,GI50,SK-OV-3,> 100 µM (inactive)
same,GI50,T47D,> 100 µM (inactive)
same,GI50,MCF7,> 100 µM (inactive)
same,GI50,Hs-578T,> 100 µM (inactive)
same,GI50,NCI-H522,> 100 µM (inactive)
same,GI50,CCRF-CEM,> 100 µM (inactive)
same,GI50,NCI-H23,> 100 µM (inactive)
same,GI50,K562,95.1 µM (inactive)
same,GI50,SF-295,> 100 µM (inactive)
same,GI50,SNB-75,> 100 µM (inactive)
same,GI50,SK-MEL-5,> 100 µM (inactive)
same,GI50,UACC-257,> 100 µM (inactive)
same,GI50,OVCAR-3,> 100 µM (inactive)
same,GI50,KM12,> 100 µM (inactive)
same,GI50,SR,> 100 µM (inactive)
same,GI50,NCI/ADR-RES,> 100 µM (inactive)
same,GI50,HL-60,> 100 µM (inactive)
same,GI50,SN12C,> 100 µM (inactive)
same,GI50,OVCAR-4,> 100 µM (inactive)
same,GI50,TK-10,> 100 µM (inactive)
same,GI50,COLO 205,> 100 µM (inactive)
same,GI50,UO-31,> 100 µM (inactive)
same,GI50,SW-620,> 100 µM (inactive)
same,GI50,U-251,> 100 µM (inactive)
same,GI50,Malme-3M,> 100 µM (inactive)
same,GI50,DU-145,> 100 µM (inactive)
same,GI50,OVCAR-5,> 100 µM (inactive)
same,GI50,HCC 2998,> 100 µM (inactive)
same,GI50,UACC-62,> 100 µM (inactive)
same,GI50,M14,> 100 µM (inactive)
CCOC(=O)N1CCC(N[C@@H]2c3cc4c(cc3[C@@H](c3cc(OC)c(O)c(OC)c3)[C@H]3C(=O)OC[C@@H]32)OCO4)CC1,GI50,HT-29,4.13 µM (inactive)
same,GI50,CAKI-1,0.478 µM (active)
same,GI50,SK-MEL-28,7.08 µM (inactive)
same,GI50,NCI-H460,0.065 µM (active)
same,GI50,HOP-62,0.714 µM (active)
same,GI50,786-0,1.15 µM (inactive)
same,GI50,IGROV-1,2.9 µM (inactive)
same,GI50,LOX IMVI,1.26 µM (inactive)
same,GI50,SNB-19,0.69 µM (active)
same,GI50,SK-MEL-2,5.81 µM (inactive)
same,GI50,HCT-15,0.796 µM
same,GI50,OVCAR-8,1.85 µM (inactive)
same,GI50,ACHN,0.431 µM (active)
same,GI50,HOP-92,0.5 µM (active)
same,GI50,SF-539,1.23 µM (inactive)
same,GI50,SF-268,3.5 µM (inactive)
same,GI50,HCT-116,3.4 µM (inactive)
same,GI50,A498,0.358 µM (active)
same,GI50,EKVX,2.69 µM (inactive)
same,GI50,SK-OV-3,0.8 µM (active)
same,GI50,CCRF-CEM,0.697 µM (active)
same,GI50,NCI-H23,0.527 µM (active)
same,GI50,K562,3.98 µM (inactive)
same,GI50,SF-295,0.499 µM (active)
same,GI50,SNB-75,2.67 µM (inactive)
same,GI50,SK-MEL-5,1.48 µM (inactive)
same,GI50,UACC-257,5.16 µM (inactive)
same,GI50,OVCAR-3,5.06 µM (inactive)
same,GI50,KM12,2.86 µM (inactive)
same,GI50,LXFL 529,7.53 µM (inactive)
same,GI50,SNB-78,10.2 µM (inactive)
same,GI50,DLD-1,5.21 µM (inactive)
same,GI50,COLO 205,4.3 µM (inactive)
same,GI50,UO-31,1.02 µM (active)
same,GI50,SW-620,2.58 µM (inactive)
same,GI50,M19-MEL,3.12 µM (inactive)
same,GI50,Malme-3M,3.46 µM (inactive)
same,GI50,UACC-62,1.03 µM (active)
same,GI50,M14,1.7 µM (inactive)
